From paper PMC4109837 (2014)

What was measured:
[1] = test system: NOX-S93 (L-RNA, aptamer, four 2'-deoxyribonucleotides (positions not given; Figure 1)) GCGUGAAUAGCCGUUGAAACGCCUUUAGAGAAGCACUAGCACGC; assay: neutralisation in S1PR3 calcium release cell assay, direct; conditions: UltraCHO medium, 20 mM Hepes
[2] = test system: NOX-S93 (L-RNA, aptamer, four 2'-deoxyribonucleotides (positions not given; Figure 1)) GCGUGAAUAGCCGUUGAAACGCCUUUAGAGAAGCACUAGCACGC; assay: competition in S1PR3 calcium release cell assay; conditions: UltraCHO medium, 20 mM Hepes, 100 nM NOX-S93, 10 nM S1P

CCCCCCCC/C=C\CCCCCCCC(=O)OC[C@@H](O)COP(=O)(O)O
binding ([1]; 50 nM LPA, no inhibition): no

CCCCCCCCCCCC/C=C/[C@@H](O)[C@@H](N)COP(=O)(O)O
binding ([1]; 10 nM C17-S1P): yes

CCCCCCCCCCCCC/C=C/[C@@H](O)[C@@H](N)CO
binding ([2]; up to 1 μM competitor): no

CCCCCCCCCCCCC/C=C/[C@@H](O)[C@@H](N)COP(=O)(O)O
binding ([1]; 10 nM S1P): yes

CCCCCCCCCCCCC/C=C/[C@@H](O)[C@@H](N)COP(=O)([O-])OCC[N+](C)(C)C
binding ([2]; up to 300 nM competitor): no

CCCCCCCCCCCCC/C=C/[C@@H](O)[C@H](CO)NC(C)=O
binding ([2]; up to 3 μM competitor): no

CCCCCCCCCCCCC/C=C/[C@@H](O)[C@H](COP(=O)(O)O)NC(=O)CCCCCCCCCCCCCCC
binding ([2]; up to 3 μM competitor): no

CCCCCCCCCCCCCCC/C=C/[C@@H](O)[C@@H](N)COP(=O)(O)O
binding ([1]; 80 nM C20-S1P): yes

CCCCCCCCCCCCCCC[C@@H](O)[C@@H](N)COP(=O)(O)O
binding ([1]; 30 nM dihydro-S1P): yes
